Test results reported in patent publication US7261875B2, “Dendritic poly (amino acid) carriers and methods of use” (Board of Regents, The University of Texas System, priority 2001, dated 2007).

Key:
SK-Br3 cells = experiment: Fluorescence microscopy, non-specific interaction of near-infrared dyes with FR-negative cells; type: cell-based, human; details: SK-Br3 cells (do not express FR), 30 minute incubation, 37° C.
Method: The folic acid receptors (FR)-mediated binding of near-infrared gluorescent conjugate PAMAM-PG16-ICG-folate was studied using a human nasopharyngeal epidermal carcinoma cell line KB and a human breast carcinoma cell line SK-BR3. KB cells over-express the FR, whereas SK-Br3 cells have no detectable […]. Cells were incubated with PAMAM-PG16-ICG-folate, indocyanine green (ICG, Sigma-Aldrich Corp. St. Louis, Mo.) or ICG-NH2 at 37° C. on cover clips in a 24-well place (Beckton Dickinson Labware, Franklin Kakes, N.J.). Each well contained 0.5 ml Dulbecco's Modified Eagle's medium/nutrient Mixture F-12 Ham (DMEM/F12) containing 10% FBS (Gibco, Grand Island, N.Y.). The final concentration of the conjugate was calculated based on the equivalent does of folic acid and ICG-NH2. For the blocking study, free folic acid was added to the culture medium 30 minutes prior to the addition of the test agents. […] Data were recorded by a Leica DMR microscope (Leica Microsystems Inc. Brannockburn, Ill.) equipped with a 75 W Xenon lamp, Indo-Cyanine Green and FITC filters (775/845 and 480/535, excitation/emission, respectively) (Chroma Technology Corp., Brattleboro, Vt.), Hamamatsue B/W Chilled CCD camera (Hamamatsu Photonics, K.K. Hamamamatsu City, Japan) and Image-Pro Plus 4.5.1 software (Media Cybernetics, L. P., Silver Spring, Md.). […]

[1] = test system: human vulvar squamous A431 cell line; experiment: MTT assay, growth inhibition of A431 cells; type: cell-based; details: A-431, 72 hrs continuous incubation, equivalent TXL concentrations, read-out: estimated IC50, growth inhibition
Method: The MTT assay was used to quantitatively compare the effects of PAMAM-PG8-TXL, linear PG-TXL, and paclitaxel on cell growth in a human vulvar squamous A431 cell line. Cells were plated in a 96-well plate at a density of 2000 cells/well and then incubated with various concentrations of paclitaxel, PAMAM-PG8-TXL, or linear PG-TXL.

[2] = Body weight loss after treatment; details: 60 mg/kg, single i.v. dose
[3] = test system: syngeneic murine ovarian OCA-1 tumor; experiment: Tumor growth delay after a single intravenous dose; details: dose of 60 mg/kg, single i.v. dose, tumors 8 mm

CC1(C)C(/C=C/C=C/C=C/C=C2\N(CCCCS(=O)(=O)O)c3ccc4ccccc4c3C2(C)C)=[N+](CCCCS(=O)(=O)[O-])c2ccc3ccccc3c21 [ICG, indocyanine green]
fluorescence / non-specific interaction with cells (SK-Br3 cells): did not have detectable non-specific interaction

CC(=O)O[C@H]1C(=O)[C@@]2(C)[C@H]([C@H](OC(=O)c3ccccc3)[C@]3(O)C[C@H](OC(=O)[C@H](O)[C@@H](NC(=O)c4ccccc4)c4ccccc4)C(C)=C1C3(C)C)[C@]1(OC(C)=O)CO[C@@H]1C[C@@H]2O [paclitaxel]
IC50 [1]: < 1 nM | body weight loss [2]: 10% | growth delay [3]: 14 days
